Results from patent US20080051429A1, “USE OF 4-AMINO-PIPERIDINES FOR TREATING SLEEP DISORDERS” (priority 2006, published 2008).

Columns and labels:
Assay in all cases: R-SAT broad profiling
Format in all cases: cell-based
5HT7A = target: T1, 5HT7A (Homo sapiens, UniProt P34969); conditions: read-out: pEC50 or pIC50 (converted)
T1 construct: expressed in transfected cells; host or cells: NIH3T3
Protocol: (§1) The functional receptor assay, Receptor Selection and Amplification Technology (R-SAT), was used (with minor modifications from that previously described U.S. Pat. No. 5,707,798) to screen compounds for efficacy at the 5-HT2A receptor. Briefly, NIH3T3 cells were grown in 96 well tissue culture plates to 70-80% confluence. Cells were transfected for 12-16 hours with plasmid DNAs using superfect (Qiagen Inc.) as per manufacture's protocols. R-SAT's were generally performed with 50 ng/well of receptor and 20 ng/well of Beta-galactosidase plasmid DNA. All receptor and G-protein constructs used were in the pSI mammalian expression vector (Promega Inc) as described in U.S. Pat. No. 5,707,798. The 5HT2A receptor gene was amplified by nested PCR from brain cDNA using the oligodeoxynucleotides based on the published sequence (see Saltzman et. al. Biochem. Biophys. Res. Comm. 181:1469-78 (1991)). Large-scale transfections, cells were transfected for 12-16 hours, then trypsinized and frozen in DMSO. Frozen cells were later thawed, plated at 10,000-40,000 cells per well of a 96 well plate that contained drug. With both methods, cells were then grown in a humidified atmosphere with 5% ambient CO2 for five days. Media was then removed from the plates and marker gene activity was measured by the addition of the beta-galactosidase substrate ONPG (in PBS with 5% NP-40). The resulting colorimetric reaction was measured in a spectrophotometric plate reader (Titertek Inc.)at […]. All data were analyzed using the computer program XLFit (IDBSm). Efficacy is the percent maximal repression compared to repression by a control compound (ritanserin in the case of 5HT2A). pIC50 is the negative of the log(IC50), where IC50 is the calculated concentration in Molar that produces 50% maximal repression.
(§2) The R-SAT assay (described above in example 289) was used to investigate the selectivity of 4-(4-Fluoro-benzyl)-3-(4-isobutoxy-benzyl)-8-methyl-1-oxa-3,8-diaza-spiro[4.5]decan-2-one.

alpha 2B = target: T2, alpha 2B (Homo sapiens, UniProt P18089); conditions: read-out: pEC50 or pIC50 (converted)
T2 construct: expressed in transfected cells; host or cells: NIH3T3
T2 sequence (P18089 1-450): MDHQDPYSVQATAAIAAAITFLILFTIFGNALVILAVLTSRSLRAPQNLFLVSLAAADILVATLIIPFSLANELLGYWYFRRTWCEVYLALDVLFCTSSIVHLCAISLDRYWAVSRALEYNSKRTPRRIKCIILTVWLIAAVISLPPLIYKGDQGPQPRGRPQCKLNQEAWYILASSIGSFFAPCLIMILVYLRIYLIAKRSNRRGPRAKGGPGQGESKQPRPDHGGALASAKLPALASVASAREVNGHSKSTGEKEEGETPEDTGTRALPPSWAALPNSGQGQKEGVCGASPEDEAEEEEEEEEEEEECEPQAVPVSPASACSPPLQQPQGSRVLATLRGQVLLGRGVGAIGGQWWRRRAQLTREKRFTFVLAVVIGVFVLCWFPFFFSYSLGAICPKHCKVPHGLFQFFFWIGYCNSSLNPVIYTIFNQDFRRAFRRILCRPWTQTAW
Protocol: as §1, §2

alpha 2C = target: T3, alpha 2C (Homo sapiens, UniProt P18825); conditions: read-out: pEC50 or pIC50 (converted)
T3 construct: expressed in transfected cells; host or cells: NIH3T3
T3 sequence (P18825 1-462): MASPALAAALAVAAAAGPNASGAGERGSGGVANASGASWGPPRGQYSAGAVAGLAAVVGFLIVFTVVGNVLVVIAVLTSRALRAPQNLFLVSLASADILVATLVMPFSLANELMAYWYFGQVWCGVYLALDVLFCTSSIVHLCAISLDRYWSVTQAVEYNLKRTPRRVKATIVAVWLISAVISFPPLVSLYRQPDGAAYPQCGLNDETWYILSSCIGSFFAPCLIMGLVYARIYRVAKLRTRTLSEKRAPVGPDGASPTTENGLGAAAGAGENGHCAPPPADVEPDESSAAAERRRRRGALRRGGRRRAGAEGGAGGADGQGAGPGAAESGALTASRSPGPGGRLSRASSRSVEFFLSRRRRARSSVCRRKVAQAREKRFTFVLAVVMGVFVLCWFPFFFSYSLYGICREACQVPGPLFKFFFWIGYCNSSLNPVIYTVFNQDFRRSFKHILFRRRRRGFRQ
Protocol: as §1, §2

m1 = target: T4, m1 (Homo sapiens, UniProt P11229); conditions: agonist; read-out: pEC50 or pIC50 (converted)
T4 construct: expressed in transfected cells; host or cells: NIH3T3
T4 sequence (P11229 1-460): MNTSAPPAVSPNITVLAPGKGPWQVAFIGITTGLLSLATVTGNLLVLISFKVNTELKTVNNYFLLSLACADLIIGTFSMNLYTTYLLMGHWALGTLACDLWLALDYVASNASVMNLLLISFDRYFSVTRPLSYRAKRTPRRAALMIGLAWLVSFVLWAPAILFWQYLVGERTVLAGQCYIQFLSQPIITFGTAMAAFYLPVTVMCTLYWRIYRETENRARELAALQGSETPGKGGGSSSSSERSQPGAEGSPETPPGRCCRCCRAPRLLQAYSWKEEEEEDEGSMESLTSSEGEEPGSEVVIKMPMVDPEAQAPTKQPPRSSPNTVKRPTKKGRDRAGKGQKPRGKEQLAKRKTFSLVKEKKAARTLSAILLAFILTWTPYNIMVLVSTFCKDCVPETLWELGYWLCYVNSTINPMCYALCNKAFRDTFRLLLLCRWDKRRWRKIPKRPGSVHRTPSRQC
Protocol: as §1, §2

m2 = target: T5, m2 (Homo sapiens, UniProt P08172); conditions: agonist; read-out: pEC50 or pIC50 (converted)
T5 construct: expressed in transfected cells; host or cells: NIH3T3
T5 sequence (P08172 1-466): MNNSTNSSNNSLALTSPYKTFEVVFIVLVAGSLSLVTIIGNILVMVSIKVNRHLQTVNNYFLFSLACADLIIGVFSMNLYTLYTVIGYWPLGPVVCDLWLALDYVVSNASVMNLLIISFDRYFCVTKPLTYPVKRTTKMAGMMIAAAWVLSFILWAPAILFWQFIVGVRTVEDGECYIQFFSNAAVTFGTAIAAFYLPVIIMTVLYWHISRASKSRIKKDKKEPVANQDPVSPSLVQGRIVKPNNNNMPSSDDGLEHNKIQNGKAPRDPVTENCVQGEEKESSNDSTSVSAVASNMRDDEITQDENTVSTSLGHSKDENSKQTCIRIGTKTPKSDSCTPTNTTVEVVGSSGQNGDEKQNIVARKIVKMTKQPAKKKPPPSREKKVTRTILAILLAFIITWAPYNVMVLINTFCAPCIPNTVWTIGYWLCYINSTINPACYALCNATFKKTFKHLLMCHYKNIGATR
Protocol: as §1, §2

m3 = target: T6, m3 (Homo sapiens, UniProt P20309); conditions: read-out: pEC50 or pIC50 (converted)
T6 construct: expressed in transfected cells; host or cells: NIH3T3
T6 sequence (P20309 whole entry): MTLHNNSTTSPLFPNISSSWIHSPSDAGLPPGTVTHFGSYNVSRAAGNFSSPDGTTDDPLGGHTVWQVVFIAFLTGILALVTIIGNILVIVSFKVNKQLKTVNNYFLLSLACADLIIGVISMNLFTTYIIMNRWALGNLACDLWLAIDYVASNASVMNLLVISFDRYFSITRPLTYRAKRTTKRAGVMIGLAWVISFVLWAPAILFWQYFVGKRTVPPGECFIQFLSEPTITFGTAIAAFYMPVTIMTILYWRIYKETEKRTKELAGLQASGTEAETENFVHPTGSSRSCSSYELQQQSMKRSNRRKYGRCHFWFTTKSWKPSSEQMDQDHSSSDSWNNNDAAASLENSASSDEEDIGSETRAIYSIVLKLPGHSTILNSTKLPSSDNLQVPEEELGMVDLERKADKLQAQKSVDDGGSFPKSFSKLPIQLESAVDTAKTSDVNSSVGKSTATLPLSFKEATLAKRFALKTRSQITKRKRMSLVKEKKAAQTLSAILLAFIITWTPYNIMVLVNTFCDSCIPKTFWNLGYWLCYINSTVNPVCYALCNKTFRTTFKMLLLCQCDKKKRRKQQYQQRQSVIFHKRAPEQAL
Protocol: as §1, §2

T1 sequence (P34969 1-445 isoform P34969-2): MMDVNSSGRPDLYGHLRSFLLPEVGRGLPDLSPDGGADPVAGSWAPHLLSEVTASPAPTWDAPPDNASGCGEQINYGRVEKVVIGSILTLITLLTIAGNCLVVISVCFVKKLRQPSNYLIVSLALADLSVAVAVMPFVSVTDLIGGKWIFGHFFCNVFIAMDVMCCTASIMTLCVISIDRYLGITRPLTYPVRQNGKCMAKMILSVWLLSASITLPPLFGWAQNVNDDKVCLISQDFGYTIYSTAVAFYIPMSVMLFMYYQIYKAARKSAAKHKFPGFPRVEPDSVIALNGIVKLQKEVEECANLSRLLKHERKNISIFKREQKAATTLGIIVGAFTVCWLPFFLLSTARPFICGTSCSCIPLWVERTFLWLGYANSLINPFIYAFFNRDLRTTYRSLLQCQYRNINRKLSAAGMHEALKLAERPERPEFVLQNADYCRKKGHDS

CC(C)COc1ccc(CN2C(=O)OC3(CCN(C)CC3)C2Cc2ccc(F)cc2)cc1.Cl (racemic) [Example 69NLS75, 4-(4-Fluorobenzyl)-3-(4-isobutoxybenzyl)-8-methyl-1-oxa-3,8-diazaspiro[4.5]decan-2-one, hydrochloride]
> 3.16 µM: EC50 (5HT7A; agonist) | IC50 (5HT7A; inverse) | EC50 (alpha 2B; agonist) | IC50 (alpha 2B; antagonist) | EC50 (alpha 2C; agonist) | IC50 (alpha 2C; antagonist) | EC50 (m1) | EC50 (m2) | EC50 (m3; agonist) | IC50 (m3; inverse)
